{
  "source": "paper PMC12222847",
  "about": "(Scientific Reports, 2025)",
  "target": "T1, CK1.2 (Trypanosoma brucei, UniProt Q57W25)",
  "T1 sequence (Q57W25 1-332)": "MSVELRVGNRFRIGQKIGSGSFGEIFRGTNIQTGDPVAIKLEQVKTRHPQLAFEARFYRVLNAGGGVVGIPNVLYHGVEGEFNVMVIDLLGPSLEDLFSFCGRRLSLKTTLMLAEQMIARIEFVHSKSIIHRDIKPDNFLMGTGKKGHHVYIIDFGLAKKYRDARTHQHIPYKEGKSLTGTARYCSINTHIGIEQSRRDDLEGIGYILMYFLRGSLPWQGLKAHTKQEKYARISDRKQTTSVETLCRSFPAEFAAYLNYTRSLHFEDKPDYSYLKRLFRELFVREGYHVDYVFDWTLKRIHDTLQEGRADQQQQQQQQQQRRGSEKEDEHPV",
  "type": "biochemical",
  "data": [
    {"smiles": "NC(=O)c1ccc(-c2nc(-c3ccc4c(c3)OCO4)c(-c3ccccn3)[nH]2)cc1", "note": "[SB-431542]", "values": [
      {"measurement": "IC50", "value": 49.2, "unit": "nM"}
    ]},
    {"smiles": "Nc1nccc(-c2c(-c3ccc(F)cc3)ncn2C2CCCCC2)n1", "note": "[PF-670462]", "values": [
      {"measurement": "IC50", "value": 29.1, "unit": "nM"}
    ]}
  ]
}
